Where “and” joins values, the source holds several entries; their conditions need not be identical. Equal values may be shown once. Values belong to the molecule of their own block, whether it stands above or below them.
Assay: solvent given as SMILES

SMILES: C#CCN1C(=O)/C(=C/c2cc(OC(C)C)ccc2OC(C)C)N=C1C
- emission maximum (in C1COCCO1): 476 nm
- emission maximum (in CC#N): 508 nm
- emission maximum (in CC(C)=O): 487 nm
- emission maximum (in CCCCCC): 440 nm
- emission maximum (in CCCCO): 516 nm
- emission maximum (in CCCO): 521 nm
- emission maximum (in CCO): 523 nm
- emission maximum (in CCOC(C)=O): 475 nm
- emission maximum (in CN(C)C=O): 500 nm
- emission maximum (in CO): 538 nm
- emission maximum (in CS(C)=O): 510 nm

SMILES: COc1cc(OC)c2c(c1)C(=O)c1cc(OC)cc(OC)c1-2
- emission maximum (in C1CCCCC1): 585 nm

SMILES: Cc1ccc(-c2nc3c([nH]2)C2=CC(=O)S[C@]2(C)[C@@]2(C)SC(=O)C=C32)cc1
- emission maximum (in CC#N): 520 nm

SMILES: Cc1csc2[n+]1[B-](F)(F)OC(c1ccc(N(C)C)cc1)=N2
- emission maximum (in C1CCOC1): 453 nm
- emission maximum (in CC#N): 466 nm
- emission maximum (in Cc1ccccc1): 437 nm
- emission maximum (in ClCCl): 453 nm

SMILES: c1ccc([B-]2(c3ccccc3)Oc3ccc4ccccc4c3-c3c4ccccc4cn[n+]32)cc1
- emission maximum (in Cc1ccccc1): 555 nm

SMILES: CC(C)(C)Nc1cc2sc3cc(NC(C)(C)C)c(F)cc3c(=O)c2cc1F
- emission maximum (in CCO): 432 nm

SMILES: O=c1c2cc(Br)ccc2nc2n1[B-](F)(F)[n+]1ccccc1-2
- emission maximum (in CC#N): 440 nm
- emission maximum (in ClCCl): 448 nm

SMILES: CC1=CC(C)=[N+]2C1=C(C1=C3C(C)=CC(C)=[N+]3[B-](F)(F)n3c(C)cc(C)c31)c1c(C)cc(C)n1[B-]2(F)F
- emission maximum (in ClC(Cl)Cl): 588 nm

SMILES: CC1(C)C2=C3C=C4C5=[N+](CCC4OC3CCN2c2ccc(CC(=O)NCCCCCCO)cc21)c1ccc(S(=O)(=O)[O-])cc1C5(C)C (stereo not given)
- emission maximum (in O): 572 nm

SMILES: CC(C)(C)c1ccc2c3c(c4ccc(C(C)(C)C)cc4c2c1)=[N+]1C(=C(c2ccccc2)c2cc4c5ccc(C(C)(C)C)cc5c5cc(C(C)(C)C)ccc5c4n2[B-]1(F)F)C=3
- emission maximum (in C1CCCCC1): 709 nm
- emission maximum (in C1CCOC1): 713 nm
- emission maximum (in CC#N): 712 nm
- emission maximum (in Cc1ccccc1): 713 nm
- emission maximum (in ClCCl): 716 nm

SMILES: COc1ccc2c(c1)c1ccccc1n2-c1nc2ccccc2nc1-n1c2ccccc2c2cc(OC)ccc21
- emission maximum (in C1CCOC1): 588.86 nm
- emission maximum (in CCCCCC): 508.97 nm
- emission maximum (in Cc1ccccc1): 560 nm

SMILES: CC1(C)CC(/C=C/c2cn(-c3ccccc3)nc2-c2ccccc2)=CC(=C(C#N)C#N)C1
- emission maximum (in C1CCOC1): 556 nm
- emission maximum (in C1COCCO1): 548 nm
- emission maximum (in CCO): 564 nm
- emission maximum (in CCOC(C)=O): 564 nm
- emission maximum (in CN(C)C=O): 565 nm
- emission maximum (in CO): 561 nm
- emission maximum (in CS(C)=O): 578 nm
- emission maximum (in Cc1ccccc1): 542 nm
- emission maximum (in ClC(Cl)Cl): 550 nm
- emission maximum (in ClCCl): 550 nm

SMILES: Cc1ccc2c(c1)C1(c3ccccc3-c3ccccc31)c1cc(C)ccc1N2c1ccc2c(c1)Oc1ccccc1P2(=S)c1ccccc1 (stereo not given)
- emission maximum (in Cc1ccccc1): 443.09 nm

SMILES: COc1ccc2cc(C(C)C(=O)Oc3ccc(-c4c5nc(c(-c6ccc(C)cc6)c6ccc([nH]6)c(-c6ccc(C)cc6)c6nc(c(-c7ccc(C)cc7)c7ccc4[nH]7)C=C6)C=C5)cc3)ccc2c1 (stereo not given)
- emission maximum (in ClCCl): 654 nm

SMILES: CC1=C2C=CC=[N+]2[B-](F)(F)n2cccc21
- emission maximum (in CCCCCC): 506 nm
- emission maximum (in CO): 503 nm
- emission maximum (in ClCCl): 507 nm

SMILES: Cc1cc(C)c(B(c2c(C)cc(C)cc2C)N2c3ccccc3C(c3ccccc3)(c3ccccc3)c3ccccc32)c(C)c1
- emission maximum (in C1CCCCC1): 522 nm
- emission maximum (in Cc1ccccc1): 537 nm
- emission maximum (in ClCCl): 558 nm

SMILES: CCn1c2ccccc2sc2c(C#N)c3[nH]c4ccccc4sc3c(C#N)c21
- emission maximum (in ClC(Cl)Cl): 615 nm

SMILES: CCN(CC)c1ccc2cc(-c3cn4ccccc4n3)c(=O)oc2c1
- emission maximum (in C1CCOC1): 474 nm
- emission maximum (in CC#N): 475 nm
- emission maximum (in CCO): 482 nm
- emission maximum (in CCOC(C)=O): 468 nm
- emission maximum (in CN(C)C=O): 477 nm
- emission maximum (in CO): 485 nm
- emission maximum (in CS(C)=O): 482 nm
- emission maximum (in Cc1ccccc1): 469 nm
- emission maximum (in ClC(Cl)Cl): 471 nm
- emission maximum (in ClCCl): 478 nm

SMILES: COc1cc(OC)cc(C2=[O+][B-](F)(F)OC(c3ccccc3)=C2)c1
- emission maximum (in CC#N): 602.29 nm
- emission maximum (in CC(C)=O): 590.78 nm
- emission maximum (in CCCCCC): 446.17 nm
- emission maximum (in Cc1ccccc1): 505.51 nm
- emission maximum (in ClCCl): 554 nm

SMILES: CCCc1ccc(C#Cc2cc(C#Cc3ccc(N(C)C)cc3)c3ccc4c(C#Cc5ccc(N(C)C)cc5)cc(C#Cc5ccc(N(C)C)cc5)c5ccc2c3c54)cc1
- emission maximum (in ClCCl): 603 nm

SMILES: O=CN1N=C(c2ccc(Br)cc2)C[C@@H]1c1ccccc1
- emission maximum (in C1CCCCC1): 348 nm
- emission maximum (in C1COCCO1): 352 nm
- emission maximum (in CC#N): 351 nm
- emission maximum (in CCO): 345 nm
- emission maximum (in CCOC(C)=O): 350 nm
- emission maximum (in CO): 350 nm
- emission maximum (in CS(C)=O): 356 nm
- emission maximum (in Cc1ccccc1): 349 nm
- emission maximum (in ClC(Cl)(Cl)Cl): 351 nm

SMILES: COc1ccc(/C=C2\OC(=O)c3ccccc32)cc1
- emission maximum (in CC#N): 456.2 nm and 446 nm
- emission maximum (in CC(C)=O): 452.49 nm
- emission maximum (in CC(C)CO): 451.88 nm
- emission maximum (in CC(C)O): 459.77 nm
- emission maximum (in CCCO): 460.83 nm
- emission maximum (in CCO): 459.35 nm
- emission maximum (in CCOC(C)=O): 438.6 nm
- emission maximum (in CCOCC): 434.03 nm
- emission maximum (in CO): 459.35 nm

SMILES: c1ccc(-n2c(-c3ccc(N(c4ccc(-c5ccc(N(c6ccc(-c7nc8c9ccccc9c9ccccc9c8n7-c7ccccc7)cc6)c6ccc(-c7nc8c9ccccc9c9ccccc9c8n7-c7ccccc7)cc6)cc5)cc4)c4ccc(-c5nc6c7ccccc7c7ccccc7c6n5-c5ccccc5)cc4)cc3)nc3c4ccccc4c4ccccc4c32)cc1
- emission maximum (in ClCCl): 432 nm

SMILES: CC(C)(C)c1ccc(-c2nc3ccccc3nc2-c2cc(-c3nc4ccccc4nc3-c3ccc(C(C)(C)C)cc3)cc(-n3c4ccccc4c4ccccc43)c2)cc1
- emission maximum (in Cc1ccccc1): 437 nm

SMILES: Cc1cc2c(ccc3c[n+](C)c(C)cc32)c[n+]1C
- emission maximum (in CC#N): 419 nm

SMILES: COc1ccc(C2=N/C(=C\c3ccc(C#N)cc3)C(=O)O2)cc1OC
- emission maximum (in C1COCCO1): 489 nm

SMILES: FC(F)(F)c1ccc(/C2=C3N=C(C(c4ccccc4)=C/3c3ccccc3)/C(c3ccc(C(F)(F)F)cc3)=c3\[nH]/c(c(-c4ccccc4)c3-c3ccccc3)=C(/c3ccc(C(F)(F)F)cc3)C3=N/C(=C(/c4ccc(C(F)(F)F)cc4)c4[nH]c2c(-c2ccccc2)c4-c2ccccc2)C(c2ccccc2)=C3c2ccccc2)cc1
- emission maximum (in ClCCl): 730 nm

SMILES: Cc1cc(C)c(B(c2cc(-c3ccc(N(C)C)cc3)sc2-c2sc(-c3ccc(N(C)C)cc3)cc2P(=O)(c2ccccc2)c2ccccc2)c2c(C)cc(C)cc2C)c(C)c1
- emission maximum (in CO): 645 nm

SMILES: COC(=O)c1cccc2c1C#Cc1c(N)cccc1OCCCO2
- emission maximum (in CC#N): 487 nm
- emission maximum (in ClCCl): 453 nm

SMILES: CCOC(=O)CCCn1c(C(=O)OC)c(C)c2c(=O)n3c(cc21)C(CC)=C(C)C3=O
- emission maximum (in C1CCCCC1): 434 nm
- emission maximum (in CO): 499 nm
- emission maximum (in CS(C)=O): 481 nm
- emission maximum (in ClC(Cl)Cl): 456 nm
- emission maximum (in c1ccccc1): 446 nm

SMILES: C(#Cc1c(C#Cc2ccccc2)c(C#Cc2ccccc2)c(C#Cc2ccccc2)c(C#Cc2ccccc2)c1C#Cc1ccccc1)c1ccccc1
- emission maximum (in ClCCl): 452 nm

SMILES: CCCCCCN1C(=O)c2cccc3cc(/N=C\c4ccc(N5CCOCC5)cc4)cc(c23)C1=O
- emission maximum (in ClC(Cl)Cl): 557 nm

SMILES: COc1ccc(C(=O)OCc2c(C)c(=O)n3c(=O)c(C)c(C)n23)cc1
- emission maximum (in CCO): 461 nm

SMILES: COCCC1=Cc2nc1ccc1[nH]c(cc1CCOC)c1nc(ccc3[nH]c2cc3CCO)C(CCOC)=C1
- emission maximum (in Cc1ccccc1): 643 nm

Second part, the molecule after the results:

- emission maximum (in CC#N): 413 nm
SMILES: CCOC(=O)c1c2c3c(ccc(OC)c3c3cc4ccccc4cc13)N(C)C2=O

- emission maximum (in CO): 399 nm
SMILES: Cc1ccc(-c2nc(-c3cccc(O)c3)[nH]c2-c2ccc(C)cc2)cc1

- emission maximum (in ClC(Cl)Cl): 440 nm
SMILES: Cc1ccc(C2CC(=O)Oc3c2c2nc4ccccc4nc2c2ccccc32)cc1 (stereo not given)

- emission maximum (in ClC(Cl)Cl): 437 nm
SMILES: O=C1CC(c2ccc(F)cc2)c2c(c3ccccc3c3nc4ccccc4nc23)O1 (stereo not given)

- emission maximum (in ClCCl): 563 nm
SMILES: CC1=C(C)c2cccc3c2c(cc2nc4ccccc4nc23)O1

- emission maximum (in CC#N): 386 nm
- emission maximum (in CCCCCC): 359 nm
- emission maximum (in CO): 422 nm
- emission maximum (in ClC(Cl)Cl): 377 nm
SMILES: c1ccc2c(-c3cc(-c4nccs4)nc(-c4nccs4)c3)cccc2c1

- emission maximum (in ClCCl): 693 nm
SMILES: CC1=[N+]2C(=Cc3c4c(cn3[B-]2(F)F)-c2nc-4c(-c3ccccc3)c3ccc([nH]3)c(-c3ccccc3)c3nc(c(-c4ccccc4)c4ccc([nH]4)c2-c2ccccc2)C=C3)C(C)C1 (stereo not given)

- emission maximum (in CN(C)C=O): 417 nm
SMILES: Fc1cc(-c2ccc(-c3nc4cc(Br)ccc4[nH]3)cc2)ccc1-c1ccc(-c2nc3cc(Br)ccc3[nH]2)cc1

- emission maximum (in ClCCl): 625 nm
SMILES: CN(C)c1ccc(C2=CC3=C(c4ccc([N+](=O)[O-])cc4)[C@H]4c5ccccc5[C@]3(S2)c2ccccc24)cc1

- emission maximum (in ClCCl): 735 nm
SMILES: CN(C)c1ccc(C2=CC3=C(c4ccc(C=C(C#N)C#N)cc4)[C@H]4c5ccccc5[C@]3(S2)c2ccccc24)cc1

- emission maximum (in CC#N): 415 nm
SMILES: CCOC(=O)c1c2c3c(ccc(F)c3c3cc4ccccc4cc13)N(C)C2=O

- emission maximum (in CCO): 305 nm
SMILES: c1ccc(C2c3ccccc3-c3ccccc32)cc1

- emission maximum (in C1CCOC1): 467 nm
- emission maximum (in CC#N): 499 nm
- emission maximum (in CCCCCCC): 426 nm
- emission maximum (in CS(C)=O): 513 nm
- emission maximum (in ClCCl): 475 nm
SMILES: CSc1ccc(/C=C/c2cnc3ccccc3n2)cc1

- emission maximum (in CC1CCCCC1): 468 nm
- emission maximum (in CC#N): 476 nm
SMILES: C(=C\c1c2ccccc2cc2ccccc12)/c1ccccc1

- emission maximum (in ClC(Cl)Cl): 387 nm
SMILES: C(#Cc1ccc(C#Cc2ccc(C#Cc3ccccc3)cc2)cc1)c1ccccc1

- emission maximum (in CC#N): 413 nm
SMILES: CCOC(=O)c1c2c3c(cccc3c3cc4ccccc4cc13)N(C)C2=O

- emission maximum (in ClC(Cl)Cl): 411 nm
SMILES: CCCCn1c2ccc(-c3cccc(F)c3)cc2c2ccc3c4cc(-c5cccc(F)c5)ccc4n(CCCC)c3c21

- emission maximum (in ClC(Cl)Cl): 489 nm
SMILES: FC(F)(F)c1ccc2oc3nc4oc5ccc(N6c7ccccc7Oc7ccccc76)cc5c4cc3c2c1

- emission maximum (in CN(C)C=O): 450 nm
SMILES: Cc1nc2cccc(-c3nc4ccc([N+](=O)[O-])cc4[nH]3)c2c(=O)[nH]1

- emission maximum (in ClCCl): 499 nm
SMILES: O=c1c2cccc3cccc(c32)c2nc3ccccc3n12

- emission maximum (in CC1CCCO1): 618 nm
SMILES: CC1=CC(C)=[N+]2C1=C(c1ccc(C)cc1)c1c(C)cc(/C=C/c3ccc4ccc5cccc6ccc3c4c56)n1[B-]2(F)F

From the Deep4Chem optical property database
